Source: patent US5925369A, “Bis alkanoyl esters of carnitine having bactericidal, fungicidal and antiprotozoal activity” (priority 1996, dated 1999)
Where two headings read alike, the source gives them in different places.

Columns and labels:
Trichomonas vaginalis = test: MIC on protozoa (Trichomonas vaginalis); format: cell-based; settings: for MIC: Trichomonas vaginalis
Description: Protozoal suspensions are prepared from 24-hour cultures grown at 37° C. and 5% CO2 in DIAMOND T.Y.M. broth supplemented with 10% heat-inactivated FCS.
The suspensions are adjusted, in the same medium, to a final concentration of 2.5×10^5 cells/ml in each well of a 96-well microtiter plate. Substance dilutions (0.3 log) are added to the suspensions in order to have a range of final concentrations from 0.19 to 100 mcg/ml. Microtiters are then incubated at 37° C. and 5% CO2 for 24 hours. MIC is referred to as the minimal concentration inhibiting either protozoa or flagella or undulating membrane motility (Cf. JULIANO C., MARTINOTTI M. G., […] P., In vitro effect of microtubule inhibitors on T. vaginalis, Microbiologia, 8:31-42, 1985. LOVGREN T. and SALMELA I., Invitro sensitivity of T. vaginalis and C. albicans to chemotherapeutic agents, Acta Path. Microbiol. Scand.. 86:155-158, 1978).

dermatophytes = test: MIC on dermatophytes (all strains); format: cell-based; settings: for MIC: 22 strains
Description: Mycelium fragments, micro and macroaleuriospores are harvested from 7-day fungal cultures grown at 30 ° C. in Potato Dextrose agar by washing them with Sabouraud broth and 0.5% Tween 80. After a coarse filtration and washing, the fungal suspension is resuspended in Yeast Nitrogen Base supplemented with asparagine and glucose (YNBs) to yield a final concentration of 1.0×10^5 infective units/ml in a microtiter plate. The substances (0.3 log dilutions in Y.N.B.s.) are added to the fungal suspensions in order to generate a range of final concentrations from 0.19 to 100 mcg/ml. The microtiter plates are then incubated at 30° C. for 96-120 hours.

Candida strains = test: MIC on Candida strains (all clinical isolates); format: cell-based, Candida albicans; settings: for MIC: Candida clinical isolates, 10 strains
Description: (§1) Overnight yeast cultures in Sabouraud broth are appropriately washed and diluted in Yeast Nitrogen Base supplemented with asparagine and glucose (Y.N.B.s.) to yield approximately 5.0×10^4 CFU/ml in microtiter wells. Substance dilutions (0.3 log) in Y.N.B.s. are added to these suspensions to a final concentration range from 0.19 to 100 mcg/ml. Microtiter plates are then incubated at 35° C. for 24-48 hours (See PFALLER M., RINALDI M. G., […] J. M., BARTLETT M. S., BODY B. A., ESPINEL-INGROFF A., FROMTLING R. A., HALL G. S., HUGHES G. E., ODDS F. C., SUGAR A. M., Collaborative investigator of variables in susceptibility testing of yeasts, Ant. Agent and Chemoth., 34, 9:1648-1656, 1990. COOK R., McINTYRE K. A., […] J. M., Effects of incubation temperature, inoculum size, and medium on agreement of macro and microdilution broth susceptibility test, results for yeasts, Ant. Agent and Chemoth., 34, 8:1542-1545, 1990. […] E., PAETZNICK V., BODEY G. P., Fluconazole susceptibility testing of "Candida albicans" microtiter method that is indipendent of inoculum size, temperature, and time of reaching, Ant. Agent and Chemoth., 35, 8:1641-1646, 1991).

S. cerevisiae = test: MIC on yeast-like strains; format: cell-based; settings: Saccharomyces cerevisiae, ATCC7752; S. cerevisiae ATCC 7752, lab collection; read-out: Minimal Inhibitory Concentration
Description: as §1

Candida albicans = test: MIC on yeast-like strains; format: cell-based; settings: read-out: Minimal Inhibitory Concentration
Description: as §1

C. tropicalis = test: MIC on yeast-like strains; format: cell-based; settings: Candida tropicalis; C. tropicalis ISS 1, lab collection; read-out: Minimal Inhibitory Concentration
Description: as §1

C. krusei = test: MIC on yeast-like strains; format: cell-based; settings: Pichia kudriavzevii; C. krusei ISS 1, lab collection; read-out: Minimal Inhibitory Concentration
Description: as §1

filamentous fungi = test: MIC on filamentous fungi (all strains); format: cell-based; settings: for MIC: lab collection, 5 strains
Description: (§2) The conidia are collected from 72-hour cultures in Sabouraud agar by washing them with Sabouraud broth and 0.5% Tween 80. After a coarse filtration and washing, the resulting suspensions are adjusted to a final concentration of approx. 5.0×10^4 CFU/ml in a microtiter plate. The substances (0.3 log dilutions in Y.N.B.s.) are added to the fungal suspensions in order to generate a range of final concentrations from 0.19 to 100 mcg/ml. The microtiter plates are then incubated at 35° C. for 48-72 hours.

Aspergillus fumigatus = test: MIC on filamentous fungi; format: cell-based; settings: ATCC28212; Aspergillus fumigatus ATCC 28212, lab collection; read-out: Minimal Inhibitory Concentration
Description: as §2

Aspergillus niger = test: MIC on filamentous fungi; format: cell-based; settings: ATCC16404; Aspergillus niger ATCC 16404, lab collection; read-out: Minimal Inhibitory Concentration
Description: as §2

Penicillium sp. = test: MIC on filamentous fungi; format: cell-based; settings: Penicillium sp. 1302, lab collection; read-out: Minimal Inhibitory Concentration
Description: as §2

Mucor mucedo = test: MIC on filamentous fungi; format: cell-based; settings: ATCC7941; Mucor mucedo ATCC 7941, lab collection; read-out: Minimal Inhibitory Concentration
Description: as §2

Fusarium sp. = test: MIC on filamentous fungi; format: cell-based; settings: Fusarium sp. F 77, lab collection; read-out: Minimal Inhibitory Concentration
Description: as §2

[1] = T. vaginalis SS-2, read-out: Minimal Inhibitory Concentration
[2] = T. vaginalis SS-9, read-out: Minimal Inhibitory Concentration
[3] = T. vaginalis SS-20, Metronidazole resistant, read-out: Minimal Inhibitory Concentration
[4] = T. vaginalis SS-22, Metronidazole resistant, read-out: Minimal Inhibitory Concentration
[5] = T. vaginalis, 4 strains, read-out: Mean MIC
[6] = C. albicans 562, lab collection
[7] = C. albicans ISS 1, lab collection
[8] = Candida albicans 1786/94, clinical isolate
[9] = Candida albicans IDI D 0101, clinical isolate (eczema, internatal; prior Versus)
[10] = Candida albicans IDI D 0297, clinical isolate (vulvar vaginitis; prior Pevaryl)
[11] = Candida albicans IDI D 1046, clinical isolate (glossitis; prior Daktarin)
[12] = Candida albicans IDI D 1056, clinical isolate
[13] = Candida albicans IDI D 1088, clinical isolate
[14] = Candida albicans IDI D 3575, clinical isolate
[15] = Candida albicans SG 2 III, clinical isolate (vaginitis)
[16] = Candida albicans SG 7 I, clinical isolate (Tinea unguis, hands)
[17] = Candida albicans SG 14 III, clinical isolate (vaginitis)

Row | Structure (SMILES) | MIC (Trichomonas vaginalis; [1]) | MIC (Trichomonas vaginalis; [2]) | MIC (Trichomonas vaginalis; [3]) | MIC (Trichomonas vaginalis; [4]) | MIC (Trichomonas vaginalis; [5]) | MIC (dermatophytes) | MIC (Candida strains) | MIC (S. cerevisiae) | MIC (Candida albicans; [6]) | MIC (Candida albicans; [7]) | MIC (Candida albicans; [8]) | MIC (Candida albicans; [9]) | MIC (Candida albicans; [10]) | MIC (Candida albicans; [11]) | MIC (Candida albicans; [12]) | MIC (Candida albicans; [13]) | MIC (Candida albicans; [14]) | MIC (Candida albicans; [15]) | MIC (Candida albicans; [16]) | MIC (Candida albicans; [17]) | further results
1 | CCCCCCCCCCCOC(=O)C[C@H](C[N+](C)(C)C)OC(=O)CC(C)C [ST 1103, isovaleryl L-carnitine undecyl ester methanesulfonate, reference compound] | 25 µg/mL | 25 µg/mL | 25 µg/mL | 25 µg/mL | 25 µg/mL | 13.5 µg/mL | 4.68 µg/mL | 3.12 µg/mL | 3.12 µg/mL | 1.56 µg/mL | 6.25 µg/mL | 6.25 µg/mL | 3.12 µg/mL | 3.12 µg/mL | 3.12 µg/mL | 3.12 µg/mL | 6.25 µg/mL | 6.25 µg/mL | 3.12 µg/mL | 6.25 µg/mL | MIC (C. tropicalis): 3.12 µg/mL; MIC (C. krusei): 3.12 µg/mL; MIC (filamentous fungi): 18.8 µg/mL; MIC (Aspergillus fumigatus): 12.5 µg/mL; MIC (Aspergillus niger): 12.5 µg/mL; MIC (Penicillium sp.): 12.5 µg/mL; MIC (Mucor mucedo): 50 µg/mL; MIC (Fusarium sp.): 6.25 µg/mL
2 | CCCCCCCCCCC(=O)O[C@H](CC(=O)OCc1ccc(COC(=O)C[C@H](C[N+](C)(C)C)OC(=O)CCCCCCCCCC)cc1)C[N+](C)(C)C [ST 1226, bis(undecanoyl L-carnitine chloride)p-xylilene diester] | 12.5 µg/mL | 12.5 µg/mL | 12.5 µg/mL | 12.5 µg/mL | 12.5 µg/mL | 3.19 µg/mL | 2.49 µg/mL | 1.56 µg/mL | 3.12 µg/mL | 3.12 µg/mL | 3.12 µg/mL | 1.56 µg/mL | 3.12 µg/mL | 3.12 µg/mL | 1.56 µg/mL | 3.12 µg/mL | 3.12 µg/mL | 1.56 µg/mL | 3.12 µg/mL | 1.56 µg/mL | greater (fold) activity than ST 1103 (Trichomonas vaginalis; T. vaginalis, ST 1226 vs ST 1103): 2 fold; activity compared with ST 1103 (dermatophytes): higher activity than ST 1103; activity compared with ST 1103 (Candida strains; yeast-like strains, mostly Candida clinical isolates): higher activity than ST 1103, mostly against Candida clinical isolates; MIC (C. tropicalis): 1.56 µg/mL; MIC (C. krusei): 3.12 µg/mL; MIC (filamentous fungi): 8.43 µg/mL; activity compared with ST 1103 (filamentous fungi; single results and mean MIC): markedly higher activity than ST 1103; MIC (Aspergillus fumigatus): 6.25 µg/mL; MIC (Aspergillus niger): 6.25 µg/mL; MIC (Penicillium sp.): 1.56 µg/mL; MIC (Mucor mucedo): 25 µg/mL; MIC (Fusarium sp.): 3.12 µg/mL
